Reference: patent publication US20070196434A1, “Methods of preventing or treating sinusitis with oxidative reductive potential water solution” (priority 2006, published 2007)
Like-named read-outs stand apart in the source and are kept apart here. Bridge positions count the residues as written; N and C are the ends. Square brackets hold non-standard residues; d marks the D form. Peptide text beside a SMILES is read from it. * marks the point of attachment. Ileψ(thiazoline)Cys = CC[C@H](C)[C@H](N)C1=N[C@H](C(=O)*)CS1; dOrn = NCCC[C@@H](N)C(=O)O

Legend:
[1] = test system: Pseudomonas aeruginosa, and Staphylococcus aureus; assay: Bacterial suspension assay, vegetative bacteria; type: cell-based; settings: all time points (20 seconds, 5 minutes, 20 minutes) at 20° C.; Bacitracin 33 Units/ml
[2] = test system: spore suspension of B. atropheus; assay: Bacterial suspension assay, spores; type: cell-based; settings: 5, and 20 minute time points at 20° C.; Bacitracin 33 Units/ml
Description: Dermacyn is a ready to use product, therefore performing dilutions during testing was not required.
A purchased spore suspension of B. atropheus at 2.5×10^7 /ml was used for testing. In addition fresh suspensions of Pseudomonas aeruginosa, and Staphylococcus aureus were prepared and measured using a spectrophotometer to ensure the titer was acceptable
Nine microliters of test substance was added to 100 ul of microbe suspension. The test mixture was held at 20° C. for the contact times of 20 seconds, 5 minutes, and 20 minutes. 1.0 ml of the test mixture (entire mixture) was added to 9,0 ml of neutralizer for 20 minutes (this is the original neutralization tube or ONT) 1.0 ml of the neutralized test mixture was plated on Tryptic Soy Agar in duplicate for the 5 minute and 20 minute contact times. Additional dilutions and spread plates were used for the 20 second time point, to achieve countable plates.
All plates were incubated at 30° C.-35° C. for a total of 3 days and were evaluated after each day of incubation.

[3] = test system: human diploid fibroblasts (HDFs); type: cell-based; settings: 880 mM
Description: HP is known to be toxic to eukaryotic cells, increasing apoptosis and necrosis and reducing cellular viability. […] HDF cultures were obtained from three different foreskins, which were pooled and cryopreserved together for the purpose of this study. Only diploid cells were used for all experiments. […] Simultaneous analyses of these parameters were performed in the same cell populations by flow cytometry using: […] B) Annexin V-FITC; and C) Propidium iodide. FIG. 4A-4C disclose percentage values expressed as mean±SD (n=3).

[4] = test system: human diploid fibroblasts (HDFs); settings: 1 month, 5 μM

cells with SA-β-Gal expression [4] [%]	RNA degradation (human cell cultures)	Structure (SMILES)	log reduction of the vegetative bacteria [1]	log reduction of spores [2]	Cell viability ([3]; 5 min) [%]	apoptosis (Annexin-V) ([3]; 5 min) [%]	necrosis (cells incorporating propidium iodide) ([3]; 5 min) [%]	Cell viability ([3]; 30 min) [%]	apoptosis (Annexin-V) ([3]; 30 min) [%]	necrosis (cells incorporating propidium iodide) ([3]; 30 min) [%]
–	–	CC[C@H](C)[C@H](N)C1=N[C@H](C(=O)N[C@@H](CC(C)C)C(=O)N[C@H](CCC(=O)O)C(=O)N[C@H](C(=O)N[C@H]2CCCCNC(=O)[C@H](CC(N)=O)NC(=O)[C@@H](CC(=O)O)NC(=O)[C@H](Cc3cnc[nH]3)NC(=O)[C@@H](Cc3ccccc3)NC(=O)[C@H]([C@@H](C)CC)NC(=O)[C@@H](CCCN)NC2=O)[C@@H](C)CC)CS1 [Bacitracin] ({Ileψ(thiazoline)Cys}-L[dE]IK[dOrn]I[dF]H[dD]N; lactam 4-C)	no evidence of lowering the bacterial or spore populations	no evidence of lowering the bacterial or spore populations	–	–	–	–	–	–
86	significant RNA degradation	OO [HP, hydrogen peroxide]	–	–	55	15	20	5	20	75
